By IC50 is commonly meant the concentration needed to halve the response being measured.

Chain of Factor D (P00746 26-253): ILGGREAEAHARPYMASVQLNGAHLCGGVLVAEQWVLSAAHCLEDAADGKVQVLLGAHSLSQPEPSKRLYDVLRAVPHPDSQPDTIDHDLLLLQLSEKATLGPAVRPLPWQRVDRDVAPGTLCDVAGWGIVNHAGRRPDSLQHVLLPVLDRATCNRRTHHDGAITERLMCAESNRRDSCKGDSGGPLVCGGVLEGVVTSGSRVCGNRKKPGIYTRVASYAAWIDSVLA

The target of this experiment is Factor D (Homo sapiens (Human), UniProt P00746). The experiment can be described thus: Factor D esterolytic assay (Z-Lys-SBzl substrate, DTNB, 405 nm). Type of experiment: biochemical. As to conditions: Z-Lys-SBzl 1.29 mM, pH 7.5, 10% DMSO, tested a minimum of three times, read-out: Measured Ki (IC50) Value for Compounds: IC50. The essentials:
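Thioester hydrolysis (Z-Lys-SBzl, 1.29 mM) by human Factor D ([…]) detected through DTNB color at 405 nm over 600 sec, minus 690 nm background. Buffer: 100 mM HEPES pH 7.5, 500 mM NaCl, 10% DMSO; optional room-temperature preincubation before substrate. IC50 derived from percent rate inhibition; at least three runs.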
Consider `Cc1nc2cc(COc3ccccc3CC(=O)O)cc(-c3cccc(CN)c3)c2o1` [Compound 91h, 2-(2-((7-(3-(aminomethyl)phenyl)-2-methylbenzo[d]oxazol-5-yl)methoxy)phenyl)acetic acid], for which the IC50 is less than 1000 nM.
The result for `Cc1cc2cc(COc3ccccc3CC(=O)O)cc(-c3cccc(CN)c3F)c2o1` [Compound 92b, 2-(2-((7-(3-(aminomethyl)-2-fluorophenyl)-2-methylbenzofuran-5-yl)methoxy)phenyl)acetic acid] reads less than 1000 nM.
As for `NCc1cccc(-c2cn3cccc3c(C(=O)Nc3ccccc3CC(=O)O)n2)c1` [Compound 93h, 2-(2-(3-(3-(aminomethyl)phenyl)pyrrolo[1,2-a]pyrazine-1-carboxamido)phenyl)acetic acid], the figure is less than 1000 nM.
The result for `NCc1cccc(-c2cc(COc3ccccc3CC(=O)O)cc3cc(CO)oc23)c1F` [Compound 94c, 2-(2-((7-(3-(aminomethyl)-2-fluorophenyl)-2-(hydroxymethyl)benzofuran-5-yl)methoxy)phenyl)acetic acid] reads less than 1000 nM; that for `NCCc1cccc(-c2cc(COc3ccccc3CC(=O)O)cc3ccoc23)c1` [Compound 95c, 2-(2-((7-(3-(2-aminoethyl)phenyl)benzofuran-5-yl)methoxy)phenyl)acetic acid], less than 1000 nM.
`COCc1cc2cc(COc3ccccc3CC(=O)O)cc(-c3cccc(CN)c3)c2o1` [Compound 96e, 2-(2-((7-(3-(aminomethyl)phenyl)-2-(methoxymethyl)benzofuran-5-yl)methoxy)phenyl)acetic acid]: the 50% inhibitory concentration (IC50) was less than 1000 nM.
The result for `Cn1ccc2c(-c3cccc(CN)c3F)cc(COc3ccccc3CC(=O)O)cc21` [Compound 97b, 2-(2-((4-(3-(aminomethyl)-2-fluorophenyl)-1-methyl-1H-indol-6-yl)methoxy)phenyl)acetic acid] reads less than 1000 nM.
The result for `CC(O)c1cc2cc(COc3ccccc3CC(=O)O)cc(-c3cccc(CN)c3)c2o1` (stereo not drawn) [Compound 98e, 2-(2-((7-(3-(aminomethyl)phenyl)-2-(1-hydroxyethyl)benzofuran-5-yl)methoxy)phenyl)acetic acid] reads less than 1000 nM; that for `COCc1cc2cc(COc3ccccc3CC(=O)O)cc(-c3cccc(CN)c3F)c2o1` [Compound 99b, 2-(2-((7-(3-(aminomethyl)-2-fluorophenyl)-2-(methoxymethyl)benzofuran-5-yl)methoxy)phenyl)acetic acid], less than 1000 nM; that for `CC(N)c1cccc(-c2cc(COc3ccccc3CC(=O)O)cc3ccoc23)n1` (stereo not drawn) [Compound 100c, 2-(2-((7-(6-(1-aminoethyl)pyridin-2-yl)benzofuran-5-yl)methoxy)phenyl)acetic acid], 1000 to 10000 nM.
As to `NCc1cccc(-c2cc(COc3ccccc3CC(=O)O)cn3ccnc23)c1` [Compound 102g, 2-(2-((8-(3-(aminomethyl)phenyl)imidazo[1,2-a]pyridin-6-yl)methoxy)phenyl)acetic acid], the IC50 is less than 1000 nM.
The result for `NCc1cccc(-c2cc(COc3ccccc3CC(=O)O)cc3cc(C(O)C(F)(F)F)oc23)c1` (stereo not drawn) [Compound 103d, 2-(2-((7-(3-(aminomethyl)phenyl)-2-(2,2,2-trifluoro-1-hydroxyethyl)benzofuran-5-yl)methoxy)phenyl)acetic acid] reads less than 1000 nM.
The result for `CC(C)(O)c1cc2cc(COc3ccccc3CC(=O)O)cc(-c3cccc(CN)c3)c2o1` [Compound 104e, 2-(2-((7-(3-(aminomethyl)phenyl)-2-(2-hydroxypropan-2-yl)benzofuran-5-yl)methoxy)phenyl)acetic acid] reads less than 1000 nM; that for `NCc1cccc(-c2cc(COc3ccccc3CC(=O)O)cc3cc(C(O)C4CC4)oc23)c1` (stereo not drawn) [Compound 105c, 2-(2-((7-(3-(aminomethyl)phenyl)-2-(cyclopropyl(hydroxy)methyl)benzofuran-5-yl)methoxy)phenyl)acetic acid], less than 1000 nM.
The result for `NCc1cncc(-c2cc(COc3ccccc3CC(=O)O)cc3ccoc23)c1` [Compound 106c, 2-(2-((7-(5-(aminomethyl)pyridin-3-yl)benzofuran-5-yl)methoxy)phenyl)acetic acid] reads 1000 to 10000 nM; that for `NCc1cccc(-c2cc(COc3ccccc3CC(=O)O)cc3nccn23)c1` [Compound 107f, 2-(2-((5-(3-(aminomethyl)phenyl)imidazo[1,2-a]pyridin-7-yl)methoxy)phenyl)acetic acid], less than 1000 nM; that for `CC(C)c1cc2cc(COc3ccccc3CC(=O)O)cc(-c3cccc(CN)c3)c2o1` [Compound 108f, 2-(2-((7-(3-(aminomethyl)phenyl)-2-isopropylbenzofuran-5-yl)methoxy)phenyl)acetic acid], less than 1000 nM.
For `CC(C)n1ccc2c(-c3cccc(CN)c3)cc(COc3ccccc3CC(=O)O)cc21` [Compound 109g, 2-(2-((4-(3-(aminomethyl)phenyl)-1-isopropyl-1H-indol-6-yl)methoxy)phenyl)acetic acid], the IC50 is less than 1000 nM.
For `NCc1ccnc(-c2cc(COc3ccccc3CC(=O)O)cc3ccoc23)c1` [Compound 110c, 2-(2-((7-(4-(aminomethyl)pyridin-2-yl)benzofuran-5-yl)methoxy)phenyl)acetic acid], the IC50 is less than 1000 nM.
Take `CC(C)n1ccc2c(-c3cccc(CN)c3F)cc(COc3ccccc3CC(=O)O)cc21` [Compound 111b, 2-(2-((4-(3-(aminomethyl)-2-fluorophenyl)-1-isopropyl-1H-indol-6-yl)methoxy)phenyl)acetic acid]: the IC50 was less than 1000 nM.
The result for `Cc1cc2cc(COc3ccccc3CC(=O)O)cc(-c3ccnc(CN)c3)c2o1` [Compound 112c, 2-(2-((7-(2-(aminomethyl)pyridin-4-yl)-2-methylbenzofuran-5-yl)methoxy)phenyl)acetic acid] reads less than 1000 nM.
As for `Cc1cc2cc(COc3ccccc3CC(=O)O)cc(-c3ccnc(CN)c3F)c2o1` [Compound 113c, 2-(2-((7-(2-(aminomethyl)-3-fluoropyridin-4-yl)-2-methylbenzofuran-5-yl)methoxy)phenyl)acetic acid], the figure is less than 1000 nM; as for `NCc1cccc(-c2cc(COc3ccccc3CC(=O)O)cc3c(N)noc23)c1` [Compound 114j, 2-(2-((3-amino-7-(3-(aminomethyl)phenyl)benzo[d]isoxazol-5-yl)methoxy)phenyl)acetic acid], less than 1000 nM; as for `NCc1cccc(-c2cc(COc3ccccc3CC(=O)O)cc3occc23)c1` [Compound 115f, 2-(2-((4-(3-(aminomethyl)phenyl)benzofuran-6-yl)methoxy)phenyl)acetic acid], less than 1000 nM.
`NCc1cccc(-c2cc(COc3ccccc3CC(=O)O)cc3sccc23)c1` [Compound 116f, 2-(2-((4-(3-(aminomethyl)phenyl)benzo[b]thiophen-6-yl)methoxy)phenyl)acetic acid]: the IC50 is less than 1000 nM.
As for `NCc1cccc(-c2cc(COc3ccccc3CC(=O)O)cc3sccc23)c1F` [Compound 117b, 2-(2-((4-(3-(aminomethyl)-2-fluorophenyl)benzo[b]thiophen-6-yl)methoxy)phenyl)acetic acid], the figure is less than 1000 nM; as for `CC(C)n1ccc2c(-c3ccnc(CN)c3)cc(COc3ccccc3CC(=O)O)cc21` [Compound 118c, 2-(2-((4-(2-(aminomethyl)pyridin-4-yl)-1-isopropyl-1H-indol-6-yl)methoxy)phenyl)acetic acid], less than 1000 nM.

Values taken from patent publication US11370774B2, “Substituted benzofuran, benzopyrrole, benzothiophene, and structurally related complement inhibitors” (BioCryst Pharmaceuticals, Inc., priority 2018, dated 2022).
